Data as given in paper PMC12090182, “Repurposing of the RIPK1-Selective Benzo[1,4]oxazepin-4-one Scaffold for the Development of a Type III LIMK1/2 Inhibitor” (ACS Chemical Biology, 2025).
pEC50: −log10 of the molar value. Several values for one entry are separate records, joined by “and”; a condition that tells them apart may be missing. Equal entries are not always repeated. Where two headings read alike, the source gives them in different places.

Tests used:
CSNK2A2 = CSNK2A2 (Homo sapiens, UniProt P19784); experiment: DSF selectivity screening; format: binding; conditions: 10 μM compound
Method: The assay was performed as previously described.[29],[35] Briefly, recombinant protein kinase domains at a concentration of 2 μM were mixed with a 10 μM compound in a buffer containing 20 mM HEPES, pH 7.5, and 500 mM NaCl. SYPRO Orange (5000×, Invitrogen) was added as a fluorescence probe (1 μL per mL). Subsequently, temperature-dependent protein unfolding profiles were measured using a QuantStudio 5 real-time PCR machine (Thermo Fisher). Excitation and emission filters were set to 465 and 590 nm, respectively. The temperature was raised with a step rate of 3 °C per minute. Data points were analyzed with internal software (Thermal Shift Software version 1.4, Thermo Fisher) using the Boltzmann equation to determine the inflection point of the transition curve (Table S4).

RIPK1 = molecular target: T1, RIPK1 (Homo sapiens, UniProt Q13546); experiment: NanoBRET cellular target engagement; format: cell-based; conditions: RIPK1, HEK293T cells
T1 construct: full-length LIMK1/2, RIPK1, BTK, and LRRK2 cloned in a frame in a NanoLuc-vector (Promega); host or cells: HEK293T
T1 sequence (Q13546 1-671): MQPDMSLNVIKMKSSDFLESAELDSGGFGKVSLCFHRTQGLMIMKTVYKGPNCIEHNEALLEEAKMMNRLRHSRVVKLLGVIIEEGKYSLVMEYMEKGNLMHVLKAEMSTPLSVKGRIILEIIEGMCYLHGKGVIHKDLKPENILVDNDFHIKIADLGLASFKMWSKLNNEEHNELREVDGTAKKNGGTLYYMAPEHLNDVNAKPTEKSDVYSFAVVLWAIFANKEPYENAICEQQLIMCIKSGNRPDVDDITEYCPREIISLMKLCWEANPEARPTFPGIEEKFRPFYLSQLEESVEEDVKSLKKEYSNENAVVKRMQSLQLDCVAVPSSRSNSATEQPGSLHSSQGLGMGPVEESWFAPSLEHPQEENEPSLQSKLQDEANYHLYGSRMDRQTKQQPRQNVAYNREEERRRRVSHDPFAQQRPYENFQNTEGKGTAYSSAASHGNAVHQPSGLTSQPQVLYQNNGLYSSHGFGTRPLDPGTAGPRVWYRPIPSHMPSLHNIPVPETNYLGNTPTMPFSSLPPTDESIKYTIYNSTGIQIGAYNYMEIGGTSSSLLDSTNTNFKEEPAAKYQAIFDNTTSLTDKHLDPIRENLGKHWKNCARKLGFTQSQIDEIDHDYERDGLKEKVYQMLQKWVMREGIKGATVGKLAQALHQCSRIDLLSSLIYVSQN
Method: The assay was performed as described previously.[31],[32] In brief, full-length LIMK1/2, RIPK1, BTK, and LRRK2 cloned in a frame in a NanoLuc-vector (Promega) were transfected into HEK293T cells (ATCC CRL-1573) using FuGENE HD (Promega, E2312), and proteins were allowed to express for 20 h. The serially diluted inhibitor and NanoBRET Kinase Tracer (Promega) used at the previously determined Tracer KD,app (Table S1) were pipetted into white 384-well plates (Greiner 781 207) using an ECHO 550 acoustic dispenser (Labcyte). The corresponding transfected cells were added and reseeded at a density of 2 × 10^5 cells/mL after trypsinization and resuspension in Opti-MEM without phenol red (Life Technologies). The system was allowed to equilibrate for 2 h at 37 °C and 5% CO2 prior to BRET measurements. To measure BRET, a NanoBRET Nano-Glo substrate and an extracellular NanoLuc inhibitor (Promega, N2160) were added as per the manufacturer's protocol, and filtered luminescence was measured on a PHERAstar plate reader (BMG Labtech) equipped with a luminescence filter pair (a 450 nm BP filter (donor) and a 610 nm LP filter (acceptor)). Competitive displacement data were then plotted using GraphPad Prism 10 software using a normalized three-parameter curve fit with the following equation: Y = 100/( [drawing 1] ).

[1] = tested on: cofilin phosphorylation (LIMK1/2 substrate); experiment: Western blot of cofilin phosphorylation in LN-229 cells; format: cell-based, human; conditions: 6 h
Method: LN-229, a human glioblastoma cell line, was cultured until passage 17 in Dulbecco’s modified Eagle’s medium (DMEM) with GlutaMAX, 10% fetal bovine serum (FBS), and 1% penicillin/streptomycin. Cells were maintained in an incubator with 5% CO2 at 37 °C. For the treatment, 3 × 10^5 cells were plated and treated with the tested compounds at the indicated concentrations and DMSO as the control for 6 h. The cells were then lysed using RIPA buffer (50 mM Tris HCl pH 7.4, 150 mM NaCl, 1% Triton X-100, 1% NaDOC, 0.1% SDS, and 1 mM EDTA), freshly supplemented with protease and phosphatase inhibitor cocktails (Sigma-Aldrich, Darmstadt, Germany). After a 1 h incubation on ice, the lysates were centrifuged for 30 min at 250g, and the protein-containing supernatant was collected. The protein concentrations were determined using the protein assay dye reagent concentrate (Bradford, Bio-Rad, Hercules, CA, USA) and prediluted protein assay standard bovine serum albumin (BSA) set (Thermo Fisher Scientific, Darmstadt, Germany). Then, equal amounts of protein were mixed with a Roti-Load 1 dye (Carl Roth, Karlsruhe, Germany) and 4× Laemmli buffer (Bio-Rad, Hercules, CA, USA), denatured at 95 °C, and run on NuPAGE 4–12% bis-Tris gels (Thermo Fisher Scientific, Darmstadt, Germany). Proteins were blotted on methanol-activated PVDF transfer membranes (Thermo Fisher Scientific, Darmstadt, Germany) using the wet transfer method with transfer buffer (Thermo Fisher Scientific, Darmstadt, Germany) and 20% methanol. Subsequently, the membranes were blocked with 5% milk or 3% BSA in 0.1% TBS-T for 1 h at RT and incubated overnight at 4 °C with primary antibodies: GAPDH (catalog no. 2118, Cell Signaling Technology, MA, USA, 1:1000 dilution), LIMK1 (catalog no. 3842, Cell Signaling Technology, 1:1000 dilution), LIMK2 (catalog no. 3845, 1:500 dilution), p-cofilin (catalog no. 3313, Cell Signaling Technology, 1:1000 dilution), cofilin (catalog no. 5175, Cell Signaling Technology, 1:1000 dilution). […]

[2] = molecular target: EGFR(L747-S752del, P753S) (Homo sapiens, UniProt P00533, DEL747-752/P753S); experiment: biochemical; format: binding; conditions: compound concentration 100 nM; Entrez EGFR; read-out: Percent Control
Chain of EGFR(L747-S752del, P753S) (P00533 other isoform, or with tags, fused parts or gaps DEL747-752/P753S): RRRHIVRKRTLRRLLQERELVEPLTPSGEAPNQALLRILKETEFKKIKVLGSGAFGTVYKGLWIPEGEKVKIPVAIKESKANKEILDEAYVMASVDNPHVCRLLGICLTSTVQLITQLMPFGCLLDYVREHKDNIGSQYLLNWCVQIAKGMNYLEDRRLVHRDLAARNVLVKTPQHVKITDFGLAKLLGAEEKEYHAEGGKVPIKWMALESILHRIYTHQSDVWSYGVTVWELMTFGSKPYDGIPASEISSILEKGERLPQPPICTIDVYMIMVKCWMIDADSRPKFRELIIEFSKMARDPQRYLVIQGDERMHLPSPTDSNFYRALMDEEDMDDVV

Chain of CSNK2A2 (P19784 1-334): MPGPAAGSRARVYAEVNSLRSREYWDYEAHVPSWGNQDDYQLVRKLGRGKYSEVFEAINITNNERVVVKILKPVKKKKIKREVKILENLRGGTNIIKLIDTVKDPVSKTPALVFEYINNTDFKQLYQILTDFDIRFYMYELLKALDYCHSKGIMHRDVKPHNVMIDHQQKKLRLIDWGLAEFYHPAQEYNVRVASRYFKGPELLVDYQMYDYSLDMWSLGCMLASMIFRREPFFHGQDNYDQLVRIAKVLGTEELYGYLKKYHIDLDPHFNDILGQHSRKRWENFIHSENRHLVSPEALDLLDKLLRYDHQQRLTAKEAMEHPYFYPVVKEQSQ

CN1C(=O)[C@@H](N2CCc3c(nn(Cc4ccccc4)c3C(N)=O)C2=O)COc2cc(Cl)ccc21 [Compound 10, (S)-2-benzyl-6-(8-chloro-5-methyl-4-oxo-2,3,4,5-tetrahydrobenzo[b][1,4]oxazepin-3-yl)-7-oxo-4,5,6,7-tetrahydro-2H-pyrazolo[3,4-c]pyridine-3-carboxamide]
ΔTm at 10 µM (CSNK2A2): 2.3 °C | pEC50 (RIPK1; read-out: EC50 (NanoBRET)): 8.20 and 8.11 | pEC50 (RIPK1; read-out: EC50 (NanoBRET), Figure 4C): 8.11 | cofilin phosphorylation (Western blot) ([1]; 100 nM): weaker levels of phosphorylation | cofilin phosphorylation (Western blot) ([1]; 1 μM and higher concentrations): almost completely abrogated | remaining activity at 0.1 µM [2]: 97%

CN1C(=O)[C@@H](N2CCc3c(C(N)=O)nn(Cc4ccccc4)c3C2=O)COc2ccccc21 [Compound 11]
ΔTm at 10 µM (CSNK2A2): 2.2 °C | pEC50 (RIPK1; read-out: EC50 (NanoBRET)): 5.46 | cofilin phosphorylation (Western blot) ([1]; 5 μM): no effect
